The text below walks through data of patent publication US20240150366A1, “4-AMINOQUINAZOLINE COMPOUND” (Astellas Pharma Inc., priority 2021, published 2024).

Where two headings read alike, the source gives them in different places.

Assay [1] concerns KRAS G12D mutant-positive pancreatic cancer line AsPC-1. Nature of the assay: Non-anchorage-dependent cell growth inhibitory activity in AsPC-1 (spheroid 3D culture). It counts as cell-based. To be noted: Homo sapiens, ASPC1, 144 h, read-out: IC50, non-anchorage-dependent cell growth inhibition. Here is the method: The non-anchorage-dependent cell growth inhibitory activities of subject compounds were evaluated by spheroid 3D cell culture.
AsPC-1 cells were seeded at 36 μL/well on a low-cell-adhesive round bottom 384-well plate (Prime Surface: from Sumitomo Bakelite) to give 5×10^2 cells per well. The cell culture was performed under the same conditions as in the Test Example 2.
The next day, the subject compounds (6 points having final concentrations in the range of 10 μM to 3.0 nM) and DMSO, which was the solvent for the subject compounds, as a negative control were diluted 100-fold with a fresh medium and were each added at 4 μL per well. After culturing in the presence of 5% CO2 at 37° C. for six days, CellTiter Glo 2.0 (from Promega) was added at 20 μL per well. After stirring with a plate mixer (from FINEPCR) at normal temperature for an hour, the luminescent signals were measured with ARVO X3 (from PerkinElmer).
With the signaling value in treatment with DMSO taken as 0% inhibition and with the signaling value in the medium alone without cells taken as 100% inhibition, the 50% inhibition values (IC50) were calculated by Sigmoid-Emax model nonlinear regression analysis.

Assay [2] has as its system ERK phosphorylation (Thr202/Tyr204) in KRAS G12D mutant-positive pancreatic cancer line AsPC-1. Nature of the assay: ERK phosphorylation inhibitory activity in AsPC-1 (cell ELISA). In kind it is cell-based. To be noted: Homo sapiens, read-out: IC50, ERK phosphorylation inhibition. The protocol: The ERK phosphorylation inhibitory activities of subject compounds were evaluated by measuring phosphorylation of the 202th threonine (Thr202) and the 204th tyrosine (Tyr204) of ERK located downstream of the KRAS signal by cell ELISA.
AsPC-1 cells (ATCC, CRL-1682) were seeded at 36 μL/well on a 384-well plate (from Greiner bio-one) to give 2.0×10^4 cells per well. As for the cell culture conditions, RPMI-1640 medium (from Sigma-Aldrich) containing 10% fetal bovine serum (from GE Life Sciences) was used in the presence of 5% CO2 at 37° C.
The next day, the subject compounds (6 points having final concentrations in the range of 10 μM to 0.3 nM), trametinib (MEK inhibitor) of a final concentration of 1 μM as a positive control and DMSO, which was the solvent for the subject compounds, as a negative control were diluted 100-fold with a fresh medium and were each added at 4 μL per well, followed by culturing for 2 hours. After culturing, a 30% glyoxal solution (40% glyoxal [from Wako] was diluted with Phosphate Buffered Saline [PBS; from Wako) was quickly added at 30 μL per well, and the plate was allowed to stand for an hour at room temperature to thus immobilize the cells. Then, the plate was centrifuged (110× g, seven seconds, hereinafter centrifugation was performed under the same conditions unless otherwise specified) to remove the supernatant, and 0.1% Triton X-100 (from Amersham Biosciences)—containing PBS was added at 20 μL per well. After allowing the plate to stand for 10 minutes at room temperature, the supernatant was removed by centrifugation, and the same operation was further repeated. Next, 0.5% sodium dodecyl sulfate (SDS; from Invitrogen)-containing PBS was added at 20 μL per well. The plate was allowed to stand at room temperature for 30 minutes and was then centrifuged to remove the supernatant. Subsequently, a blocking solution (Intercept Blocking Buffer; from LI-COR Biosciences) was added at 20 μL per well, and the plate was allowed to stand for an hour at room temperature. The supernatant was removed by centrifugation, and an ERK (Thr202/Tyr204) phosphorylation antibody (Phospho-p44/42 MAPK (Erk 1/2) (Thr202/Tyr204) (D13.14.4E) XP Rabbit mAb; from Cell Signaling Technology) diluted 2,500-fold with the blocking solution was added at 10 μL per well as a primary antibody. The plate was allowed to stand at 4° C. overnight.
The next day, the plate was centrifuged to remove the supernatant, and 0.05% Tween-20-containing PBS (from Thermo Scientific; 20× PBS Tween-20 was diluted 20-fold with ion exchange water and used) was added at 20 μL per well. The supernatant was removed by centrifugation to thus wash each well. The washing was performed three times in total. After washing, an IRDye 800CW Goat anti-Rabbit IgG (from LI-COR Biosciences) diluted 1,000-fold with the blocking solution was added at 10 μL per well as a secondary antibody, and the plate was allowed to stand for an hour at room temperature. The plate was centrifuged to remove the supernatant, and each well was washed three times with 0.05% Tween-20-containing PBS in the same manner as after the primary antibody reaction. Centrifugation after the third washing was performed at 171×g for 17 seconds. After removing the supernatant, the plate was dried as it was with air at room temperature for three hours or more, and the 800-nm fluorescent signals were measured with Aerius (from LI-COR Biosciences).
With the signaling value at the time of addition of DMSO taken as 0% inhibition and with the signaling value at the time of addition of […] trametinib taken as 100% inhibition, the 50% inhibition values (IC50) were calculated by Sigmoid-Emax model nonlinear regression analysis.
Background: ELISA stands for enzyme-linked immunosorbent assay.

Assay [3] has as its target KRAS G12D/SOS/c-Raf complex (Homo sapiens (Human), UniProt P01116, G12D). Nature of the assay: KRAS G12D/SOS/c-Raf complex formation inhibitory activity (TR-FRET). In kind it is biochemical. The following applies: human recombinant proteins, 1 hour at room temperature, read-out: IC50, KRAS G12D/SOS/c-Raf complex formation inhibition. The protocol:
Using human recombinant KRAS G12D, SOS and c-Raf proteins, the inhibitory activity of subject compounds on the complex formation of the proteins was examined by a time-resolved fluorescence resonance energy transfer (TR-FRET) method.
Biotinylated AviTag-KRAS G12D (amino acid region of 1-185, GDP) (2.5 μL; 400 nM) and subject compounds dissolved in an assay buffer (50 mM HEPES, 150 mM NaCl, 5 mM MgCl2, 0.05% Tween 20, pH 7.0) were added to a 384-well plate (from Corning) in a liquid volume of 2.5 μL at 40,000 nM to 40 nM. Son of Sevenless (SOS) (amino acid region of 564-1049, 2.5 μL; 1.3 μM) and c-Raf (amino acid region of 51-131) GST (2.5 μL; 130 nM) containing GTP (from Sigma-Aldrich; 2 μM) were added to the plate, and the plate was allowed to stand for 1 hour at room temperature. Then, a mixture liquid (10 μL) of LANCE Ulight-anti-GST (from PerkinElmer; 120 nM) and LANCE Eu-W1024 labeled Streptoavidin (from PerkinElmer; 100 ng/mL) was added, and the 620-nm and 665-nm fluorescence intensities were measured using EnVision 2104 (from PerkinElmer) under the conditions of an excitation wavelength of 337 nm. After standardizing the values with the fluorescence intensity at a reference wavelength of 620 nm, the 50% inhibitory concentrations (IC50) were calculated by Sigmoid-Emax model nonlinear regression analysis with the signaling value in treatment with the solvent taken as 0% inhibition and with the signaling value without the addition of GTP taken as 100% inhibition.
In general terms: Time-resolved FRET reads energy transfer from a long-lived donor to a nearby acceptor.

Chain of KRAS G12D/SOS/c-Raf complex (P01116 other isoform, or with tags, fused parts or gaps G12D): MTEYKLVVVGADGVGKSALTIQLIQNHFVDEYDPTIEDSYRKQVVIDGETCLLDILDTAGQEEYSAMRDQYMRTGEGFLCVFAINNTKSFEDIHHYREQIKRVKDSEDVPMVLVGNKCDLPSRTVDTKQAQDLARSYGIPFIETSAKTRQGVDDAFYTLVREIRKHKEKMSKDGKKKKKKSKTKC

As to `Cc1c(F)cc2[nH]ncc2c1-c1c(C2CC2)cc2c(N3C[C@@H]4C[C@H]3CN4)nc(OC3CCOCC3)nc2c1OCc1ccc(CN2CCN(C3CCOCC3)CC2=O)cc1` [Example 5, 1-({4-[({6-cyclopropyl-4-[(1S,4S)-2,5-diazabicyclo[2.2.1]heptan-2-yl]-7-(6-fluoro-5-methyl-1H-indazol-4-yl)-2-[(oxan-4-yl)oxy]quinazolin-8-yl}oxy)methyl]phenyl}methyl)-4-(oxan-4-yl)piperazin-2-one], the IC50 in assay [1] is 83 nM; in assay [2] (ASPC1, 2 h) it was 32 nM; in assay [3], 107 nM.
As for `Cc1c(F)cc2[nH]ncc2c1-c1c(C2CC2)cc2c(N3C[C@@H]4C[C@H]3CN4)nc(OC3CCOCC3)nc2c1OCc1ccc(Cn2nc(-c3cnccn3)nc2C)cc1` [Example 11, 6-cyclopropyl-4-[(1S,4S)-2,5-diazabicyclo[2.2.1]heptan-2-yl]-7-(6-fluoro-5-methyl-1H-indazol-4-yl)-8-[(4-{[5-methyl-3-(pyrazin-2-yl)-1H-1,2,4-triazol-1-yl]methyl}phenyl)methoxy]-2-[(oxan-4-yl)oxy]quinazoline], the IC50 was determined as 133 nM in assay [1]; 81 nM in assay [2] (ASPC1, 2 h); 110 nM in assay [3].
For `Cc1c(F)cc2[nH]ncc2c1-c1c(C2CC2)cc2c(N3C[C@@H]4C[C@H]3CN4)nc(OC3CCOCC3)nc2c1OCc1ccc(Cc2ncn(C3CC3)n2)cc1` [Example 14, 6-cyclopropyl-8-({4-[(1-cyclopropyl-1H-1,2,4-triazol-3-yl)methyl]phenyl}methoxy)-4-[(1 S,4S)-2,5-diazabicyclo[2.2.1]heptan-2-yl]-7-(6-fluoro-5-methyl-1H-indazol-4-yl)-2-[(oxan-4-yl)oxy]quinazoline], in that order: 154 nM, 42 nM and 143 nM.
On to `Cc1c(F)cc2[nH]ncc2c1-c1c(C2CC2)cc2c(N3C[C@@H]4C[C@H]3CN4)nc(OC3CCOCC3)nc2c1OCc1ccc(Cc2ncn(C3COC3)n2)cc1` [Example 3, 6-cyclopropyl-4-[(1S,4S)-2,5-diazabicyclo[2.2.1]heptan-2-yl]-7-(6-fluoro-5-methyl-1H-indazol-4-yl)-2-[(oxan-4-yl)oxy]-8-[(4-{[1-(oxetan-3-yl)-1H-1,2,4-triazol-3-yl]methyl}phenyl)methoxy]quinazoline], for which the IC50 in assay [1] (AsPC-1 spheroid 3D culture, six days, CellTiter Glo 2.0) came out at 128 nM; in assay [2] (ASPC1, AsPC-1 cells, 2 hours culture, cell ELISA), 55 nM; in assay [3], 75 nM.
